Test results published in patent US20250152524A1, “TOPICAL COMPOSITIONS AND METHODS” (VasoDynamics Limited, priority 2022, published 2025).
Where “and” joins values, the source holds several entries; their conditions need not be identical. Equal values may be shown once. Where a name gives a salt, the structure may show the parent alone. Read-outs that look alike come from different tables or passages of the source. Values belong to the compound of their own block, whether it stands above or below them.

Columns and labels:
[1] = for μmols retained in oropharyngeal cavity (A × 0.24): 12.5 ml administered; for Optimum L-Epinephrine Topical Dose (μmols/cm^2): 12.5 ml, surface area 188 cm^2
Description: In these experiments, three human volunteer subjects were provided vials containing solution of 5 mM phenylephrine HCl dissolved in our orotopical delivery vehicle, and they were instructed to: • i) deliver the vial contents into their mouths; • ii) ii) swish the liquid in their mouths, pausing to gargle twice for five seconds; and • iii) at the specified time spit out the liquid into a glass vial.
The volume administered and the volume spit out by each test subject were recorded, and HPLC analysis of the phenylephrine concentration in the administered solution and the solutions spit out by each of the three volunteer subjects were determined.

[2] = Nutman et al., Crit Care Med 1994; cited from earlier work
submucosal blood vessels = test system: submucosal blood vessels
Description: 2. While stirring, 2-5 N HCl was added to achieve a pH of 2.5.
3. […] The subject swished the 12.5 ml of formulation, gargling twice for 5 seconds each, for 2.0 minutes, and then spit out the formulation.

[3] = HCl titration of L-epinephrine free base in orotopical delivery vehicle: pH and appearance; format: physicochemical
Description: 18 hours later, the clear solution had developed a pink colour (consistent with adrenochrome formation, an oxidative epinephrine metabolite) and flocculant, re-precipitated material had appeared on the surface of the liquid.
An abrupt drop in pH occurred at pH 6.10 in which the turbidity also immediately clarified. Table 2 provides a summary of the pH values from this titration, and indicates the experimentally determined moles of HCl that were required to achieve pH 2.50 in this specific formulation

squamous human skin = details: 3 mg/ml
oral mucosa tissue = assay: Lip blanch response after topical application of 1.0 ml to lips (Example 1); format: in vivo, human
[4] = Stability of pharmaceutical composition with around 20% wt/vol oxygen (Example 9); format: physicochemical; details: 5 mM (0.92 mg/ml)
Description: The stability study samples were stored at the stability incubator chambers with various temperature and humidity conditions. At indicated time points, pulled samples were assessed on items such as Appearance, Identification, Colour of solution, Clarity of solutions, pH, Assay, Related Substances, Ethanol and Sodium Metabisulfite content for L-epinephrine solution.

[5] = test system: mucositis, dermatitis and alopecia; details: topically applied, animal models; cited from earlier work
radiation dermatitis = details: cited from earlier work; for relative potencies of the topically applied vasoconstrictors (suppression of radiation dermatitis): 75 μl in ethanol:water (70:30) on 4.5 cm^2 shaved skin 12 min before 17.2 Gy; for potency in comparison to epinephrine: Fahl, 2016
cancerous tissues = details: topical application, three xenograft tumour mice models; cited from earlier work
[6] = 5 mM × 12.5 ml administered, one line per subject, HCl

% of Administered Dose Spit Out B/A × 100 [1, 6]: 74% and 72% and 83%
% of Orotopical PhE-HCl Dose Delivered to Oral Surfaces [1, 6]: 26% and 28% and 17%
mg PhE-HCl Actually Delivered [1, 6]: 3.3 mg and 3.6 mg and 2.2 mg
SMILES: CNC[C@H](O)c1cccc(O)c1 [PhE-HCl, phenylephrine HCl]
Spit Out PhE-HCl mg/ml (hplc) × ml B ([1]; 5 mM × 12.5 ml (12.8 mg) administered, one line per subject, mean in brackets, HCl): (10.59) mg/ml × ml and 9.23, 9.62 (9.42) mg/ml × ml and 8.91, 9.51 (9.21) mg/ml × ml

SMILES: CNC[C@H](O)c1ccc(O)c(O)c1 [L-epinephrine]
2N HCl added to adjust to pH 2.33 (ml/l) (L-epi conc 0.92 mg/ml): 5.36 ml/l
pH without addition of L-epi (L-epi conc 0.92 mg/ml): 4.32
2N HCl added to adjust to pH 2.33 (ml/l) (L-epi conc 5.50 mg/ml): 11.88 ml/l
pH without addition of L-epi (L-epi conc 5.50 mg/ml): 7.10
potency versus racemic +/−epinephrine HCl [2]: twice as potent
share of L-epinephrine dose from the orotopical solution delivered to oral mucosa ([1]; 1.8 mg/ml or 3.6 mg/ml administered to mouths of adult humans): 20-30%
μmols retained in oropharyngeal cavity (A × 0.24) ([1]; 10 mM (1.8 mg/ml)): 30 μmols
Optimum L-Epinephrine Topical Dose (μmols/cm^2) ([1]; 10 mM (1.8 mg/ml)): 0.160 μmols/cm^2
μmols retained in oropharyngeal cavity (A × 0.24) ([1]; 20 mM (3.6 mg/ml)): 60 μmols
Optimum L-Epinephrine Topical Dose (μmols/cm^2) ([1]; 20 mM (3.6 mg/ml)): 0.320 μmols/cm^2
lip blanching (photos) (submucosal blood vessels; 5.5 mg/ml solution on the lower lip): blanching
lip blanch response (submucosal blood vessels; 5 minutes after initiation of gargling, 12.5 ml, pH 2.5): clear, robust blanch response
time within which robust mucosal blanch was induced (submucosal blood vessels; four healthy volunteers, 0.9-5.5 mg/ml): 5 to 60 min
appearance of solution ([3]; at pH 2.50): clear and colourless
appearance of solution ([3]; at pH 4.95): clear and colourless
appearance of solution ([3]; pH 2.50 solution, 48 hrs later): clear and colourless
appearance of solution ([3]; pH 4.95 solution, 18 hours later): pink colour
duration of blanching after dermal topical application (squamous human skin): about 40 minutes
time to see a robust lip blanch response (oral mucosa tissue; solution at pH 2.50, 20 mM, 1.0 ml on lips): 8 min
time to see a discernible lip blanch response (oral mucosa tissue; solution at pH 4.95, 1.0 ml on lips): ~20 min
single impurity ([4]; 40° C. for 1 month): ~1.7%
total impurities ([4]; 40° C. for 1 month): 3.8%
concentration of antioxidant sodium metabisulfite ([4]; 60° C. and 40° C.): decreasing trend
decrease of concentration of L-epinephrine ([4]; 60° C. stress condition): about 18%
sample colour ([4]; 60° C. stress condition): light brown
single impurity ([4]; 60° C. stress condition): more than 8%
total impurities ([4]; 60° C. stress condition): more than 17%

SMILES: CNC[C@H](O)c1cccc(O)c1 [phenylephrine]
prevention of mucositis, dermatitis and alopecia induced by radiation [5]: successful outcome
relative potencies of the topically applied vasoconstrictors (suppression of radiation dermatitis) (radiation dermatitis): 0.2
potency in comparison to epinephrine (radiation dermatitis): one fifth
interference to the curative radiation effect to cancerous tissues (cancerous tissues): no interference

SMILES: NC[C@H](O)c1ccc(O)c(O)c1 [norepinephrine]
prevention of mucositis, dermatitis and alopecia induced by radiation [5]: successful outcome
relative potencies of the topically applied vasoconstrictors (suppression of radiation dermatitis) (radiation dermatitis): 0.5
potency in comparison to epinephrine (radiation dermatitis): half
interference to the curative radiation effect to cancerous tissues (cancerous tissues): no interference

SMILES: CNC[C@H](O)c1ccc(O)c(O)c1 [epinephrine]
prevention of mucositis, dermatitis and alopecia induced by radiation [5]: successful outcome
relative potencies of the topically applied vasoconstrictors (suppression of radiation dermatitis) (radiation dermatitis): 1
interference to the curative radiation effect to cancerous tissues (cancerous tissues): no interference
